Read-outs that look alike come from different tables or passages of the source.
Key:
Test in all cases: 3D clonogenic assay (PDX)
Format in all cases: cell-based, human
RXF 616 = settings: RXF 616, Renal; for IC50: Homo sapiens
Procedure: (§1) The anti-tumor efficacy of S1 in the patient-derived tumor xenograft (PDX) tumor panel was assessed, where the efficacy of S1 in PDX tumor panel in the 96-well format, in 10 concentrations in duplicate was performed. Colony formation of tumor cell suspensions in a soft-agar matrix was observed and quantified. The output is IC50 values and dose response-relationships based on number of colonies in control and treatment wells, as identified by an automated image analysis algorithm. Stock solution of S1 was prepared in 100% DMSO at 10 mM concentration (stored at -20°C) and reused for each experiment. Compound final test concentrations: Dilution series ½ i.e.: 50µM, 15, 5, 1.5, 0.5, 0.15, 0.05, 0.015, 0.005 and 0.0015.
(§2) Tumor xenografts (also referred to as patient-derived tumor xenografts) were passaged as subcutaneous xenografts in NMRI nu/nu mice. Tumor xenograft were removed from mice under sterile conditions, mechanically disaggregated and subsequently incubated with an enzyme cocktail consisting of collagenase type IV (41 U/mL), DNase I (125 U/mL), hyaluronidase type III (100 U/mL) and dispase II (1.0 U/mL) in RPMI 1640 medium at 37°C for 60 - 120 minutes. Cells were passed through sieves of 100 µm and 40 µm mesh size and washed with RPMI 1640 medium. The percentage of viable cells was determined in a Neubauer-hemocytometer using trypan blue exclusion. Aliquots of the cells were frozen down, and stored in liquid nitrogen.
(§3) The clonogenic assay test was carried out in 96 well plate format. For each test a frozen aliquot of tumor cells prepared from tumor xenografts was thawed and assay plates were prepared as follows: each test well contained 3 layers of equal volume, 2 layers of semi-solid medium (bottom and top layer), and one layer of medium supernatant, with or without test compound. The bottom layer consisted of 0.05 mL/well Iscove's Modified Dulbecco's Medium (Invitrogen), supplemented with 20% (v/v) fetal calf serum (Sigma), 0.01% (w/v) gentamicin (Invitrogen) and 0.75% (w/v) agar (BD Biosciences). Tumor cells were added to 0.05 mL of the same culture medium supplemented with 0.4% (w/v) agar and plated onto the bottom layer. After 24 h, test compounds were added after serial dilution in DMSO and transfer in cell culture medium, and left on the cells for the duration of the experiment (continuous exposure, 0.05 mL drug overlay). Every dish included six untreated control wells and drug-treated groups in duplicate at 10 concentrations. Cultures were incubated at 37 °C and 7.5% CO2 in a humidified atmosphere for 8 to 13 days and monitored closely for colony growth using an inverted microscope. Within this period, ex vivo tumor growth lead to the formation of colonies with a diameter of >50 µm. At the time of maximum colony formation, counts were performed with an automatic image analysis system. 24 h prior to evaluation, vital colonies were stained with a sterile aqueous solution of 2-(4-iodophenyl)-3-(4-nitrophenyl)-5-phenyltetrazolium chloride (1 mg/mL, 100 µL/well). Sigmoidal concentration-response curves were fitted to the data points obtained for each tumor model using 4 parameter non-linear curve fit (Oncotest Warehouse Software). IC50 values are reported as relative IC50 values, being the concentration of test compound that give a response (inhibition of colony formation/viability) half way between the top and bottom plateau of the sigmoidal concentration-response curve (inflection point of the curve), or as absolute IC50 values, being the concentration of test compound at the intersection of the concentration-response curves with T/C = 50%. For calculation of mean IC50 values the geometric mean was used. Results are presented as mean graph plots or heat maps (individual IC50 values relative to the geometric mean IC50 value) over all cell lines as tested.

GXA 3040 = settings: GXA 3040, Asian Gastric; for IC50: Homo sapiens
Procedure: as §1, §2, §3

RXF 1114 = settings: RXF 1114, Renal; for IC50: Homo sapiens
Procedure: as §1, §2, §3

CXF 2025 = settings: CXF 2025, Colorectal; for IC50: Homo sapiens
Procedure: as §1, §2, §3

CXF 1103 = settings: CXF 1103, Colorectal; for IC50: Homo sapiens, CXF1103
Procedure: as §1, §2, §3

LXFA 289 = settings: LXFA 289, Lung Adeno; for IC50: Homo sapiens
Procedure: as §1, §2, §3

LXFA 983 = settings: LXFA 983, Lung Adeno; for IC50: Homo sapiens
Procedure: as §1, §2, §3

MEXF 672 = settings: MEXF 672, Melanoma; for IC50: Homo sapiens
Procedure: as §1, §2, §3

HNXF 908 = settings: HNXF 908, Head and Neck; for IC50: Homo sapiens
Procedure: as §1, §2, §3

LXFL 529 = settings: LXFL 529, Lung Large Cell; for IC50: Homo sapiens
Procedure: as §1, §2, §3

MAXF 1162 = settings: MAXF 1162, Breast; for IC50: Homo sapiens
Procedure: as §1, §2, §3

PRXF PC-3M = settings: Prostate; for IC50: Homo sapiens
Procedure: as §1, §2, §3

## O[C@H](c1cc(-c2ccc(Cl)cc2)nc2ccccc12)[C@@H]1CCCCN1 [S1, (R)-(2-(4-chlorophenyl)quinolin-4-yl)((S)-piperidin-2-yl)methanol]
RXF 616; read-out: abs. IC50
  IC50: 8.81 µM
RXF 616; read-out: rel. IC50
  IC50: 8.77 µM
RXF 616
  b (bottom plateau of concentration-effect curve): 17
  t (top plateau of concentration-effect curve): 89
GXA 3040
  b (bottom plateau of concentration-effect curve): 13
  t (top plateau of concentration-effect curve): 94
GXA 3040; read-out: abs. IC50
  IC50: 8.84 µM
GXA 3040; read-out: rel. IC50
  IC50: 8.79 µM
RXF 1114; read-out: abs. IC50
  IC50: 8.18 µM
RXF 1114; read-out: rel. IC50
  IC50: 7.98 µM
RXF 1114
  b (bottom plateau of concentration-effect curve): 30
  t (top plateau of concentration-effect curve): 94
CXF 2025
  b (bottom plateau of concentration-effect curve): 33
  t (top plateau of concentration-effect curve): 97
CXF 2025; read-out: abs. IC50
  IC50: 8.87 µM
CXF 2025; read-out: rel. IC50
  IC50: 8.61 µM
CXF 1103
  b (bottom plateau of concentration-effect curve): 47
  t (top plateau of concentration-effect curve): 99
CXF 1103; read-out: abs. IC50
  IC50: 11.5 µM
CXF 1103; read-out: rel. IC50
  IC50: 6.47 µM
LXFA 289; read-out: abs. IC50
  IC50: 45.4 µM
LXFA 289; read-out: rel. IC50
  IC50: 39.3 µM
LXFA 289
  b (bottom plateau of concentration-effect curve): 21
  t (top plateau of concentration-effect curve): 94
LXFA 983; read-out: abs. IC50
  IC50: 4.81 µM
LXFA 983; read-out: rel. IC50
  IC50: 4.6 µM
LXFA 983
  b (bottom plateau of concentration-effect curve): 30
  t (top plateau of concentration-effect curve): 96
MEXF 672; read-out: abs. IC50
  IC50: 8.96 µM
MEXF 672; read-out: rel. IC50
  IC50: 8.56 µM
MEXF 672
  b (bottom plateau of concentration-effect curve): 39
  t (top plateau of concentration-effect curve): 96
HNXF 908
  b (bottom plateau of concentration-effect curve): 17
  t (top plateau of concentration-effect curve): 90
HNXF 908; read-out: abs. IC50
  IC50: 5.19 µM
HNXF 908; read-out: rel. IC50
  IC50: 5.12 µM
LXFL 529; read-out: abs. IC50
  IC50: 10.4 µM
LXFL 529; read-out: rel. IC50
  IC50: 10.1 µM
LXFL 529
  b (bottom plateau of concentration-effect curve): 11
  t (top plateau of concentration-effect curve): 92
MAXF 1162; read-out: abs. IC50
  IC50: 4.64 µM
MAXF 1162; read-out: rel. IC50
  IC50: 4.63 µM
MAXF 1162
  b (bottom plateau of concentration-effect curve): 12
  t (top plateau of concentration-effect curve): 90
PRXF PC-3M; read-out: abs. IC50
  IC50: 16.9 µM
PRXF PC-3M; read-out: rel. IC50
  IC50: 16.9 µM
PRXF PC-3M
  b (bottom plateau of concentration-effect curve): 3
  t (top plateau of concentration-effect curve): 98

— EP3064205A1, “Therapeutic use of isomeric forms of 2-(4-chlorophenyl)quinolin-4-yl)(piperidin-2-yl)methanol” (Glionova AB, priority 2015, dated 2016)
